According to patent US12264170B2, “Antimicrobial organosilanes” (TOPIKOS SCIENTIFIC, INC., priority 2019, dated 2025):

What was measured:
[1] = product dissolved in water, observation
[2] = Dissolution of isolated product in water; type: physicochemical; details: observation

| Molecule | stability in water [1] | dissolution in water [2] |
| --- | --- | --- |
| CCCCCCCCCCCCCCCCC[N+](C)(C)CCC[Si]12OC[C@@H](O)[C@H](O1)[C@H](O)[C@H](C(=O)[O-])O2 [Example 16, Sodium (3R,4S,5S,6R)-1-(3-(heptadecyldimethylammonio)propyl)-4,6-dihydroxy-2,8,9-trioxa-1-silabicyclo[3.3.1]nonane-3-carboxylate; Chloride] | quickly decomposed to for a biphasic mixture | poorly dissolved in water |
| Disodium, 7-(2-((carboxymethyl)(2-hydroxyethyl)amino)ethoxy)-7-(3-(heptadecyldimethylammonio)propyl)-3,11-bis(2-hydroxyethyl)-6,8-dioxa-3,11-diaza-7-silatridecanedioate; chloride [Example 13] | soon formed a suspension | readily dissolved in water |
| CCCCCCCCCCCCCCCCCC[N+](C)(C)CCC[Si](OCC(CO)(CO)NCC(O)CS(=O)(=O)[O-])(OCC(CO)(CO)NCC(O)CS(=O)(=O)O)OCC(CO)(CO)NCC(O)CS(=O)(=O)O (stereo not shown) [Example 2, Disodium; 3-[[1-[[3-[dimethyl(octadecyl)ammonio]propyl-[3-hydroxy-2-(hydroxymethyl)-2-[(2-hydroxy-3-sulfonato-propyl)amino]propoxy]-[3-hydroxy-2-(hydroxymethyl)-2-[(2-hydroxy-3-sulfo-propyl)amino]propoxy]silyl]oxymethyl]-2-hydroxy-1-(hydroxymethyl)ethyl]amino]-2-hydroxy-propane-1-sulfonate; chloride] |  | dissolves in water |
| CCCCCCCCCCCCCCCCCC[N+](C)(C)CCC[Si](OCC(CO)(CO)NCC(=O)[O-])(OCC(CO)(CO)NCC(=O)[O-])OCC(CO)(CO)NCC(=O)O.[Cl-].[Na+].[Na+] [Example 10, Disodium, 7-(2-((carboxymethyl)amino)-3-hydroxy-2-(hydroxymethyl)propoxy)-7-(3-(dimethyl(octadecyl)ammonio)propyl)-4,4,10,10-tetrakis(hydroxymethyl)-6,8-dioxa-3,11-diaza-7-silatridecanedioate; chloride] |  | readily dissolved in water |
| CCCCCCCCCCCCCCCCC[N+](C)(C)CCC[Si]1(O[C@H](C(=O)O)[C@H](O)[C@H](O)[C@@H](O)C(=O)O)O[C@@H]([C@H](O)C(=O)O)[C@H](O)[C@H](C(=O)O)O1 (stereo partly drawn) [Example 17, N-(3-((4R,5S,6R)-4-carboxy-6-((S)-carboxy(hydroxy)methyl)-2-((1S,2R,3S,4R)-1,4-dicarboxy-2,3,4-trihydroxybutoxy)-5-hydroxy-1,3,2-dioxasilinan-2-yl)propyl)-N,N-dimethylheptadecan-1-aminium chloride] | quickly decomposed to for a biphasic mixture | poorly dissolved in water |
| CCCCCCCCCCCCCCCCCC[N+](C)(C)CCC[Si](OCC(CO)(CO)NCCS(=O)(=O)[O-])(OCC(CO)(CO)NCCS(=O)(=O)O)OCC(CO)(CO)NCCS(=O)(=O)O [Example 1, Disodium; 2-[[1-[[3-[dimethyl(octadecyl)ammonio]propyl-[3-hydroxy-2-(hydroxymethyl)-2-(2-sulfoethylamino)propoxy]-[3-hydroxy-2-(hydroxymethyl)-2-(2-sulfonatoethylamino)propoxy]silyl]oxymethyl]-2-hydroxy-1-(hydroxymethyl)ethyl]amino]ethanesulfonate chloride] |  | dissolves in water |
| CCCCCCCCCCCCCCCCCC[N+](C)(C)CCC[Si](OCC(CO)(CO)NCCS(=O)(=O)[O-])(OCC(CO)(CO)NCCS(=O)(=O)O)OCC(CO)(CO)NCCS(=O)(=O)O.[Cl-].[Na+] [Example 21, Monosodium; 2-[[1-[[3-[dimethyl(octadecyl)ammonio]propyl-[3-hydroxy-2-(hydroxymethyl)-2-(2-sulfoethylamino)propoxy]-[3-hydroxy-2-(hydroxymethyl)-2-(2-sulfonatoethylamino)propoxy]silyl]oxymethyl]-2-hydroxy-1-(hydroxymethyl)ethyl]amino]ethanesulfonate chloride] |  | dissolves readily in water |
| CCCCCCCCCCCCCCCCC[N+](C)(C)CCC[Si](OCCN(CCO)CC(O)CS(=O)(=O)[O-])(OCCN(CCO)CC(O)CS(=O)(=O)O)OCCN(CCO)CC(O)CS(=O)(=O)O (stereo not shown) [Example 8, Disodium; 3-[2-[3-[heptadecyl(dimethyl)ammonio]propyl-[2-[2-hydroxyethyl-(2-hydroxy-3-sulfonato-propyl)amino]ethoxy]-[2-[2-hydroxyethyl-(2-hydroxy-3-sulfo-propyl)amino]ethoxy]silyl]oxyethyl-(2-hydroxyethyl)amino]-2-hydroxy-propane-1-sulfonate; chloride] | forms a precipitate after 5 hours | dissolved in water |
| CCCCCCCCCCCCCCCCCC[N+](C)(C)CCC[Si](OCC(CO)(CO)NCCS(=O)(=O)[O-])(OCC(CO)(CO)NCCS(=O)(=O)O)OCC(CO)(CO)NCCS(=O)(=O)O [Example 4, Sodium; 7,7-bis(3-hydroxy-2-(hydroxymethyl)-2-((2-sulfoethyl)amino)propoxy)-4,4-bis(hydroxymethyl)-11,11-dimethyl-6-oxa-3,11-diaza-7-silanonacosan-11-ium-1-sulfonate; chloride] |  | dissolved quickly in water, initially hazy but slowly forms clear |
